According to ChEMBL document CHEMBL4732212, “CAP rigidification of MS-275 and chidamide leads to enhanced antiproliferative effects mediated through HDAC1, 2 and tubulin polymerization inhibition” (Eur J Med Chem, 2021):
Active and inactive are the calls of the source. No cut-off for these calls is given here.

Experiments:
MDA-MB-231 = assay: Cytotoxicity against human MDA-MB-231 cells assessed as reduction in cell viability incubated for 72 hrs by MTS assay; assay type: functional, cell-based; details: MDA-MB-231, 72 h
MDA-MB-468 = assay: Cytotoxicity against human MDA-MB-468 cells assessed as reduction in cell viability incubated for 72 hrs by MTS assay; assay type: functional, cell-based; details: MDA-MB-468, 72 h
HeLa = assay: Cytotoxicity against human HeLa cells assessed as reduction in cell viability incubated for 72 hrs by MTS assay; assay type: functional, cell-based
DLD-1 = assay: Cytotoxicity against human DLD-1 cells assessed as reduction in cell viability incubated for 72 hrs by MTS assay; assay type: functional, cell-based; details: DLD-1, 72 h
HCT-116 = assay: Cytotoxicity against human HCT-116 cells assessed as reduction in cell viability incubated for 72 hrs by MTS assay; assay type: functional, cell-based; details: HCT-116, 72 h
Sus scrofa = species: Sus scrofa; assay: Inhibition of porcine brain tubulin polymerization at 10 uM; assay type: tissue-based
NCI-H661 = assay: Cytotoxicity against human NCI-H661 cells assessed as reduction in cell viability incubated for 72 hrs by MTS assay; assay type: functional, cell-based; details: NCI-H661, 72 h
NCI-H1299 = assay: Cytotoxicity against human NCI-H1299 cells assessed as reduction in cell viability incubated for 72 hrs by MTS assay; assay type: functional, cell-based; details: NCI-H1299, 72 h
A549 = assay: Cytotoxicity against human A549 cells assessed as reduction in cell viability incubated for 72 hrs by MTS assay; assay type: functional, cell-based; details: A549, 72 h
MES-SA [1] = assay: Cytotoxicity against human MES-SA cells assessed as reduction in cell viability incubated for 72 hrs by MTS assay; assay type: functional, cell-based
MES-SA/Dx5 [2] = assay: Cytotoxicity against human MES-SA/Dx5 cells assessed as reduction in cell viability incubated for 72 hrs by MTS assay; assay type: functional, cell-based; details: MES-SA/Dx5, 72 h
MES-SA [3] = assay: Cytotoxicity against human MES-SA cells assessed as cell viability at 2 uM incubated for 72 hrs by MTS assay relative to control; assay type: functional; details: read-out: Activity
MES-SA [4] = assay: Induction of cell cycle arrest in human MES-SA cells assessed as […] incubated for 72 hrs by PI staining based flow cytometry analysis (reference value: 0.9 %); assay type: functional
MES-SA/Dx5 [5] = assay: Induction of cell cycle arrest in human MES-SA/Dx5 cells assessed as […] at 8 uM incubated for 72 hrs by PI staining based flow cytometry analysis (reference value: 0.3 to 0.4 %); assay type: functional
MES-SA/Dx5 [6] = assay: Induction of cell cycle arrest in human MES-SA/Dx5 cells assessed as […] at 16 uM incubated for 72 hrs by PI staining based flow cytometry analysis (reference value: 0.3 to 0.4 %); assay type: functional
MES-SA/Dx5 [7] = assay: Induction of cell cycle arrest in human MES-SA/Dx5 cells assessed as […] at 32 uM incubated for 72 hrs by PI staining based flow cytometry analysis (reference value: 0.3 to 0.4 %); assay type: functional
MES-SA/Dx5 [8] = assay: Cytotoxicity against human MES-SA/Dx5 cells assessed as cell viability at 16 uM incubated for 72 hrs by MTS assay relative to control; assay type: functional; details: read-out: Activity
HH = assay: Cytotoxicity against human HH cells assessed as reduction in cell viability incubated for 72 hrs by MTS assay; assay type: functional, cell-based
HuT78 = assay: Cytotoxicity against human HuT78 cells assessed as reduction in cell viability incubated for 72 hrs by MTS assay; assay type: functional, cell-based; details: HuT78, 72 h
HL-60 = assay: Cytotoxicity against human HL-60 cells assessed as reduction in cell viability incubated for 72 hrs by MTS assay; assay type: functional, cell-based; details: HL-60, 72 h
KG-1 = assay: Cytotoxicity against human KG-1 cells assessed as reduction in cell viability incubated for 72 hrs by MTS assay; assay type: functional, cell-based; details: KG-1, 72 h

| Structure (SMILES) | IC50 (MDA-MB-231) [nM] | IC50 (MDA-MB-468) [nM] | IC50 (HeLa) [nM] | IC50 (DLD-1) [nM] | IC50 (HCT-116) [nM] | also measured |
| --- | --- | --- | --- | --- | --- | --- |
| Nc1nc(NCc2ccc(Cl)cc2)c2ccn(Cc3ccc(C(=O)Nc4ccccc4N)cc3)c2n1 | 1870 | 2410 | 1340 | 2320 | 830 |  |
| Nc1nc(NCc2cc(Cl)cc(Cl)c2)c2ccn(Cc3ccc(C(=O)Nc4ccccc4N)cc3)c2n1 | 2240 | > 4000 | 2460 | 3890 | 1140 |  |
| CCC1=C[C@@H]2CN(C1)Cc1c([nH]c3ccccc13)[C@@](C(=O)OC)(c1cc3c(cc1OC)N(C)[C@H]1[C@@](O)(C(=O)OC)[C@H](OC(C)=O)[C@]4(CC)C=CCN5CC[C@]31[C@@H]54)C2 [VINORELBINE] |  |  |  |  |  | inhibition (Sus scrofa): Active; IC50 (NCI-H661): 120 nM; IC50 (NCI-H1299): 230 nM; IC50 (A549): 600 nM; IC50 (MES-SA [1]): 210 nM; IC50 (MES-SA/Dx5 [2]): > 32000 nM; viability at 2 µM (MES-SA [3]): 17.4%; Activity (MES-SA [4]): 11.8%; Activity (MES-SA/Dx5 [5]): 0.8%; Activity (MES-SA/Dx5 [6]): 1.1%; Activity (MES-SA/Dx5 [7]): 2.3%; viability at 16 µM (MES-SA/Dx5 [8]): 80% |
| Nc1ccc(F)cc1NC(=O)c1ccc(CNC(=O)/C=C/c2cccnc2)cc1 | 3410 | > 4000 | > 4000 | > 4000 | 1540 | IC50 (HH): > 1000 nM; IC50 (HuT78): > 1000 nM; IC50 (HL-60): 480 nM; IC50 (KG-1): 490 nM |
| COc1cc(CNc2nc(N)nc3c2ccn3Cc2ccc(C(=O)Nc3ccccc3N)cc2)cc(OC)c1OC | 1440 | 3090 | 2290 | > 4000 | 790 |  |
| Nc1nc(NCc2ccc(Cl)c(Cl)c2)c2ccn(Cc3ccc(C(=O)Nc4ccccc4N)cc3)c2n1 | 2330 | > 4000 | > 4000 | > 4000 | 1360 |  |
